Assays:
THP-1 (AML) cells = test: LSD1 CD11b cellular assay (flow cytometry); type: cell-based; details: Homo sapiens, THP-1, 96 h; CD11b expressing cells, 4 days incubation
Description: To analyze LSD1 inhibitor efficacy in cells, a CD11b flow cytometry assay was performed. LSD1 inhibition induces CD11b expression in THP-1 (AML) cells which can be measured by flow cytometry. […] LSD1 test compounds were serially diluted in DMSO. The dilutions were added to each well accordingly to a final concentration of 0.2% DMSO. The cells were incubated at 37 degrees Celsius in 5% CO2 for 4 days. 250 μL of each well was transferred to a well in a 96 well round bottom plate. The plate was centrifuged at 1200 rpm at 4 degrees Celsius in a Beckman Coulter Alegra 6KR centrifuge for 5 minutes. The media was removed leaving the cells at the bottom of the wells. The cells were washed in 100 μL cold HBSS (Hank's Balanced Salt Solution) plus 2% BSA (Bovine Serum Albumin) solution and centrifuged at 1200 rpm at 4 degrees Celsius for 5 minutes. The wash was removed. […] The cells were centrifuged and washed two times in 100 μL HBSS plus 2% BSA. After the final spin the cells were resuspended in 100 μL HBSS plus 2% BSA containing 1 ug/mL DAPI (4′,6-diamidino-2-phenylindole). The cells were then analyzed by flow cytometry in a BD FACSAria machine. Cells were analyzed for CD11b expression. The percent of CD11b expressing cells for each inhibitor concentration was used to determine an IC50 curve for each compound analyzed.

full-length human LSD1 = full-length human LSD1 (Homo sapiens (Human), UniProt O60341); test: In vitro enzyme inhibition assay LSD-1 (TR-FRET); type: biochemical; details: H3K4me1-biotin peptide
Description: This assay determines the ability of a test compound to inhibit LSD1 demethylase activity.
The enzymatic assay of LSD1 activity is based on Time Resolved-Fluorescence Resonance Energy Transfer (TR-FRET) detection.
Plates were read by EnVision Multilabel Reader in TR-FRET mode (excitation at 320 nm, emission at 615 nm and 665 nm) after 1 hour incubation at room temperature.
The ability of the compounds disclosed herein to inhibit LSD1 activity was quantified and the respective IC50 value was determined.

Row | IC50 (THP-1 (AML) cells) [µM] | IC50 (full-length human LSD1) [µM] | Structure (SMILES)
1 | 0.1 to 1 | < 0.1 | N#Cc1ccc(-c2cn(Cc3ccc(F)cc3)c(=O)c(N3CCC(N)CC3)n2)cc1 [Example 9, 4-[6-(4-aminopiperidin-1-yl)-4-[(4-fluorophenyl)methyl]-5-oxo-4,5-dihydropyrazin-2-yl]benzonitrile]
2 | < 0.1 | < 0.1 | COc1ccc(-c2c(-c3ccc(C#N)c(F)c3)nc(N3CCC(N)CC3)c(=O)n2CCCC(N)=O)cc1 [Example 90, 4-[3-(4-aminopiperidyl)-5-(4-cyano-3-fluorophenyl)-6-(4-methoxyphenyl)-2-oxohydropyrazinyl]butanamide]
3 | < 0.1 | < 0.1 | Cc1ccc(-c2c(-c3ccc(C#N)cc3)nc(N3CCC(N)CC3)c(=O)n2CCO)cc1 [Example 37, 4-[6-(4-amino-piperidin-1-yl)-4-(2-hydroxy-ethyl)-5-oxo-3-p-tolyl-4,5-dihydro-pyrazin-2-yl]-benzonitrile]
4 | < 0.1 | < 0.1 | COc1ccc(-c2c(-c3ccc(C#N)c(F)c3)nc(N3CCC(N)CC3)c(=O)n2C)cc1 [Example 52, 4-[6-(4-amino-piperidin-1-yl)-3-(4-methoxy-phenyl)-4-methyl-5-oxo-4,5-dihydro-pyrazin-2-yl]-2-fluoro-benzonitrile]
5 | 0.1 to 1 | < 0.1 | COc1ccc(Cn2cc(-c3ccc(C#N)cc3)nc(N3CCC(N)CC3)c2=O)cc1 [Example 11, 4-[6-(4-aminopiperidin-1-yl)-4-[(4-methoxyphenyl)methyl]-5-oxo-4,5-dihydropyrazin-2-yl]benzonitrile]
6 | 0.1 to 1 | < 0.1 | Cn1c(-c2ccc(C3CC3)cc2)c(-c2ccc(C#N)cc2)nc(NC[C@@H]2CCNC2)c1=O [Example 35, 4-[3-(4-cyclopropylphenyl)-4-methyl-5-oxo-6-{[(3R)-pyrrolidin-3-ylmethyl]amino}-4,5-dihydropyrazin-2-yl]benzonitrile]
7 | 0.1 to 1 | < 0.1 | N#Cc1ccc(-c2cn(Cc3ccccc3F)c(=O)c(N3CCC(N)CC3)n2)cc1 [Example 3, 4-[6-(4-aminopiperidin-1-yl)-4-[(2-fluorophenyl)methyl]-5-oxo-4,5-dihydropyrazin-2-yl]benzonitrile]
8 | < 0.1 | < 0.1 | COc1ccc(-c2c(-c3ccc(C#N)c(F)c3)cc(N3CCC(N)CC3)c(=O)n2CC2CC2)cc1 [Example 85, 4-[5-(4-aminopiperidin-1-yl)-1-(cyclopropylmethyl)-2-(4-methoxyphenyl)-6-oxopyridin-3-yl]-2-fluorobenzonitrile]
9 | 0.1 to 1 | < 0.1 | N#Cc1ccc(-c2cn(CC3CCOC3)c(=O)c(N3CCC(N)CC3)n2)cc1F (stereo not drawn) [Example 14, 4-[6-(4-amino-piperidin-1-yl)-5-oxo-4-(tetrahydro-furan-3-ylmethyl)-4,5-dihydro-pyrazin-2-yl]-2-fluoro-benzonitrile]
10 | < 0.1 | < 0.1 | Cc1ccc(-c2c(-c3ccc(C#N)nc3)nc(N3CCC(N)CC3)c(=O)n2C)cc1 [Example 19, 5-[6-(4-aminopiperidin-1-yl)-4-methyl-3-(4-methylphenyl)-5-oxo-4,5-dihydropyrazin-2-yl]pyridine-2-carbonitrile]
11 | 0.1 to 1 | < 0.1 | N#Cc1ccc(-c2cn(Cc3cccc(F)c3)c(=O)c(N3CCC(N)CC3)n2)cc1 [Example 8, 4-[6-(4-aminopiperidin-1-yl)-4-[(3-fluorophenyl)methyl]-5-oxo-4,5-dihydropyrazin-2-yl]benzonitrile]
12 | < 0.1 | < 0.1 | CNC1CCN(c2nc(-c3ccc(C#N)c(F)c3)c(-c3ccc(C)cc3)n(CCO)c2=O)CC1 [Example 65, 2-Fluoro-4-[4-(2-hydroxy-ethyl)-6-(4-methylamino-piperidin-1-yl)-5-oxo-3-p-tolyl-4,5-dihydro-pyrazin-2-yl]-benzonitrile]
13 | < 0.1 | < 0.1 | CNC1CCN(c2cc(-c3ccc(C#N)c(F)c3)c(-c3ccc(OC)c(F)c3)n(C)c2=O)CC1 [Example 86, 2-fluoro-4-[2-(3-fluoro-4-methoxyphenyl)-1-methyl-5-[4-(methylamino)piperidin-1-yl]-6-oxopyridin-3-yl]benzonitrile]
14 | < 0.1 | < 0.1 | COCCn1c(-c2ccc(C)cc2)c(-c2ccc(C#N)c(F)c2)nc(NC[C@H]2CCNC2)c1=O [Example 43, 4-(6-{[((3S)-pyrrolidin-3-yl)methyl]amino}-4-(2-methoxyethyl)-3-(4-methylphenyl)-5-oxo(4-hydropyrazin-2-yl))-2-fluorobenzenecarbonitrile]
15 | < 0.1 | < 0.1 | N#Cc1ccc(-c2nc(N3CCC(N)CC3)c(=O)n(CCO)c2-c2ccc(C3CC3)cc2)cc1 [Example 38, 4-[6-(4-amino-piperidin-1-yl)-3-(4-cyclopropyl-phenyl)-4-(2-hydroxy-ethyl)-5-oxo-4,5-dihydro-pyrazin-2-yl]-benzonitrile]
16 | < 0.1 | < 0.1 | CNC1CCN(c2cc(-c3ccc(C#N)c(F)c3)c(-c3ccc(OC)cc3)n(C)c2=O)CC1 [Example 79, 2-fluoro-4-{2-(4-methoxyphenyl)-1-methyl-5-[4-(methylamino)piperidyl]-6-oxo(3-hydropyridyl)}benzenecarbonitrile]
17 | < 0.1 | < 0.1 | CNC1CCN(c2nc(-c3ccc(C#N)cc3)c(-c3ccc(C)cc3)n(C)c2=O)CC1 [Example 20, 4-{4-methyl-6-[4-(methylamino)piperidin-1-yl]-3-(4-methylphenyl)-5-oxo-4,5-dihydropyrazin-2-yl}benzonitrile]
18 | < 0.1 | < 0.1 | Cn1c(-c2ccc(C3CC3)cc2)c(-c2ccc(C#N)c(F)c2)nc(NC[C@H]2CCNC2)c1=O [Example 59, 4-{3-(4-cyclopropyl-phenyl)-4-methyl-5-oxo-6-[((3S)-pyrrolidin-3-ylmethyl)-amino]-4,5-dihydro-pyrazin-2-yl}-2-fluoro-benzonitrile]
19 | < 0.1 | < 0.1 | Cc1ccc(-c2c(-c3ccc(C#N)cc3)nc(N3CCC4(CCNC4)CC3)c(=O)n2C)cc1 [Example 24, 4-(6-{2,8-diazaspiro[4.5]decan-8-yl}-4-methyl-3-(4-methylphenyl)-5-oxo-4,5-dihydropyrazin-2-yl)benzonitrile]
20 | < 0.1 | < 0.1 | Cn1c(-c2ccc(C3CC3)cc2)c(-c2ccc(C#N)c(F)c2)nc(N2CCC(N)CC2)c1=O [Example 50, 4-[6-(4-amino-piperidin-1-yl)-3-(4-cyclopropyl-phenyl)-4-methyl-5-oxo-4,5-dihydro-pyrazin-2-yl]-2-fluoro-benzonitrile]
21 | 0.1 to 1 | < 0.1 | Cn1c(-c2ccc(C3CC3)cc2)c(-c2ccc(C#N)cc2)nc(NC[C@H]2CCNC2)c1=O [Example 34, 4-[3-(4-cyclopropylphenyl)-4-methyl-5-oxo-6-{[(3S)-pyrrolidin-3-ylmethyl]amino}-4,5-dihydropyrazin-2-yl]benzonitrile]
22 | < 0.1 | < 0.1 | Cn1c(-c2ccc(C3CC3)cc2)c(-c2ccc(C#N)nc2)cc(NC[C@H]2CCNC2)c1=O [Example 73, (S)-5-(2-(4-cyclopropylphenyl)-1-methyl-6-oxo-5-(pyrrolidin-3-ylmethylamino)-1,6-dihydropyridin-3-yl)picolinonitrile]
23 | < 0.1 | < 0.1 | COc1ccc(-c2c(-c3ccc(C#N)c(F)c3)cc(N3CCC(N)CC3)c(=O)n2C)cc1 [Example 67, 4-(5-(4-aminopiperidin-1-yl)-2-(4-methoxyphenyl)-1-methyl-6-oxo-1,6-dihydropyridin-3-yl)-2-fluorobenzonitrile]
24 | 1 to 10 | < 0.1 | N#Cc1ccc(-c2cn(CC3CC3)c(=O)c(N3CCC(N)CC3)n2)cc1F [Example 7, 4-[6-(4-amino-piperidin-1-yl)-4-cyclopropylmethyl-5-oxo-4,5-dihydro-pyrazin-2-yl]-2-fluoro-benzonitrile]
25 | < 0.1 | < 0.1 | CCc1ccc(-c2c(-c3ccc(C#N)cc3)nc(N3CCC(N)CC3)c(=O)n2C)cc1 [Example 27, 4-[6-(4-aminopiperidin-1-yl)-3-(4-ethylphenyl)-4-methyl-5-oxo-4,5-dihydropyrazin-2-yl]benzonitrile]
26 | < 0.1 | < 0.1 | COCCCn1c(-c2ccc(C)cc2)c(-c2ccc(C#N)c(F)c2)nc(N2CCC(N)CC2)c1=O [Example 45, 4-[6-(4-aminopiperidyl)-4-(3-methoxypropyl)-3-(4-methylphenyl)-5-oxo(4-hydropyrazin-2-yl)]-2-fluorobenzenecarbonitrile]
27 | 1 to 10 | < 0.1 | C[C@H](c1ccccc1)n1cc(-c2ccc(C#N)cc2)nc(N2CCC(N)CC2)c1=O [Example 12, 4-[6-(4-aminopiperidin-1-yl)-5-oxo-4-[(1R)-1-phenylethyl]-4,5-dihydropyrazin-2-yl]benzonitrile]

— US11028066B2, “Inhibitors of lysine specific demethylase-1” (CELGENE QUANTICEL RESEARCH, INC., priority 2014, dated 2021)
